According to PMC5147970 (Biochemistry, 2015):
Where “and” joins values, the source holds several entries; their conditions need not be identical. Equal entries are not always repeated.

Key:
[1] = target: T1, R67 dihydrofolate reductase (R67 DHFR) (Escherichia coli, UniProt P00383); test: steady-state DHFR inhibition, Lineweaver–Burk slope replot; format: biochemical
T1 sequence (P00383 1-78): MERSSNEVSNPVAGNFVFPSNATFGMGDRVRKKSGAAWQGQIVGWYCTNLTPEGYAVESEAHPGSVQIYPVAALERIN

[2] = target: T2, R67 dihydrofolate reductase (K33M) (Escherichia coli, UniProt P00383, K33M); test: folate reduction kinetics; format: biochemical
T2 sequence (P00383 4-78 K33M): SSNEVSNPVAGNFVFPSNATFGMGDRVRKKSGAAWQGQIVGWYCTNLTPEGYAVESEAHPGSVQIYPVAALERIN

[3] = target: T1, R67 dihydrofolate reductase (R67 DHFR); test: steady-state DHFR inhibition vs DHF; format: biochemical
[4] = target: chymotrypsin-truncated R67 dihydrofolate reductase; test: AUC
[5] = target: chymotrypsin-truncated R67 dihydrofolate reductase cross-linked to folate with EDC; test: AUC

NCCNC(=O)CC[C@H](NC(=O)c1ccc(NCc2cnc3nc(N)[nH]c(=O)c3n2)cc1)C(=O)NCCN [bis-EDA–folate]
Ki [1]: 140 ± 15 µM

Nc1nc(=O)c2nc(CNc3ccc(C(=O)N[C@@H](CCC(=O)O)C(=O)O)cc3)cnc2[nH]1 [folate]
folate reduction kinetics (kcat) and EDC cross-linking inactivation [2]: 0.065 ± 0.017 min^–1
Ki [3]: 16 ± 3 µM

chymotrypsin-truncated R67 dihydrofolate reductase (enzyme)
stoichiometry N [4]: 4 and 2

chymotrypsin-truncated R67 dihydrofolate reductase cross-linked to folate with EDC (enzyme)
stoichiometry N [5]: 4
